Literature values in US20110311626A1, “CONTROLLED RELEASE COMPOSITIONS COMPRISING ANTI-CHOLINERGIC DRUGS” (priority 2009, published 2011).

Details: currently marketed formulation, blood plasma, after administration

CCN(CC)CCOC(=O)C1(C2CCCCC2)CCCCC1 [dicyclomine, bicyclohexyl-1-carboxylic acid, 2-(diethylamino) ethyl ester]
Tmax: 1.5 to 3 h
